Experimental data as given in patent publication US20240317718A1, “SUBSTITUTED HETEROCYCLIC COMPOUNDS” (BRISTOL-MYERS SQUIBB COMPANY, priority 2021, published 2024).

What follows are molecules tested on Caco-2 cells. Conditions: human, Caco-2, 2 h, 3 μM, pH 7.4.

Structure (SMILES)	CACO2 (A-B) [nm/s]
[2H]C([2H])([2H])NC(=O)c1nnc(NC(=O)C2CC2)cc1Nc1cccc(-c2cc(C)ncn2)c1OC [Example 8, 6-cyclopropaneamido-4-{[2-methoxy-3-(6-methylpyrimidin-4-yl)phenyl]amino}-N-(^2H3)methylpyridazine-3-carboxamide]	460
[2H]C([2H])([2H])NC(=O)c1nnc(NC(=O)C2CC2)cc1Nc1cccc(-c2ncns2)c1OC [Example 9, 6-cyclopropaneamido-4-{[2-methoxy-3-(1,2,4-thiadiazol-5-yl)phenyl]amino}-N-(^2H3)methylpyridazine-3-carboxamide]	499
[2H]C([2H])([2H])NC(=O)c1nnc(NC(=O)C2CC2)cc1Nc1cccc(-c2cnc(F)cn2)c1OC [Example 10, 6-cyclopropaneamido-4-{[3-(5-fluoropyrazin-2-yl)-2-methoxyphenyl]amino}-N-(^2H3)methylpyridazine-3-carboxamide]	513
[2H]C([2H])([2H])NC(=O)c1nnc(NC(=O)C2CC2)cc1Nc1cccc(-c2cnc(C3CC3)cn2)c1OC [Example 11, 6-cyclopropaneamido-4-{[3-(5-cyclopropylpyrazin-2-yl)-2-methoxyphenyl]amino}-N-(^2H3)methylpyridazine-3-carboxamide]	270
[2H]C([2H])([2H])NC(=O)c1nnc(NC(=O)C2CC2)cc1Nc1cccc(-c2cnc([N+](=O)[O-])cn2)c1OC [Example 12, 6-cyclopropaneamido-4-{[2-methoxy-3-(5-nitropyrazin-2-yl)phenyl]amino}-N-(^2H3)methylpyridazine-3-carboxamide]	16
[2H]C([2H])([2H])NC(=O)c1nnc(NC(=O)C2CC2)cc1Nc1cccc(-c2nc(C)ns2)c1OC [Example 13, 6-cyclopropaneamido-4-{[2-methoxy-3-(3-methyl-1,2,4-thiadiazol-5-yl)phenyl]amino}-N-(^2H3)methylpyridazine-3-carboxamide]	211
